Values after ≈ are worked out from the molar mass of the structure shown. Values joined by “and” are separate entries in the source; they are usually repeats but may differ in a detail not shown here. Equal values may be shown once. Read-outs that look alike come from different tables or passages of the source.
Key:
[1] = biological target: cytochrome P450 2C9 (Homo sapiens, UniProt P11712); test: Cytochrome P450 inhibition, 2C9; assay type: in vitro ADME
[2] = biological target: cytochrome P450 2C19 (Homo sapiens, UniProt P33261); test: Cytochrome P450 inhibition, 2C19; assay type: in vitro ADME
[3] = tested on: P. falciparum NF54 strain; test: Antiplasmodial activity, parasite lactate dehydrogenase assay, NF54; assay type: cell-based, Plasmodium falciparum; settings: parasite lactate dehydrogenase assay over 72 h, read-out: Pf IC50 ± SD NF54
[4] = biological target: PvPI4K (Plasmodium vivax, UniProt A5KB26); test: biochemical; settings: purified recombinant PvPI4K, 10 μM ATP, ADP-Glo; mean of N ≥ 2; read-out: PvPI4K IC50 ± SD
[5] = tested on: P. falciparum; test: In vitro resistance selection under sustained drug pressure; assay type: cell-based, Plasmodium falciparum; settings: sustained drug pressure at 3 × IC90 for 60 days in vitro (data not shown)
[6] = biological target: HuMINK1 (Homo sapiens, UniProt Q8N4C8); test: Human kinase inhibition, HuMINK1; settings: read-out: HuMINK1, IC50
[7] = biological target: cytochrome P450 3A4 (Homo sapiens, UniProt P08684); test: Cytochrome P450 inhibition, 3A4; assay type: in vitro ADME
[8] = tested on: Dd2_PI4K_CNV; test: microbe, parasite or virus in culture; assay type: cell-based; settings: Plasmodium falciparum, 72 h, read-out: Dd2_PI4K_CNV IC50
[9] = biological target: HuPI3Kα (Homo sapiens, UniProt P42336); test: Human kinase inhibition, HuPI3Kα; settings: read-out: HuPI3Kα, IC50
[10] = tested on: β-hematin (βH) formation; test: NP-40 mediated cell-free β-hematin assay; settings: read-out: β-hematin IC50; cell-free NP-40 detergent-mediated assay; n = 2
[11] = Plasma protein binding, mouse; assay type: in vitro ADME; settings: read-out: PPB fu, mouse
[12] = Mouse pharmacokinetic studies; settings: male, BalbC; for Vd at 24 h / half-life at 24 h / bioavailability at 24 h: in vivo; for Vd at 24 h / half-life at 24 h / in vivo mouse CLb: iv, 2 mg/kg; for bioavailability at 24 h: po
[13] = biological target: HuMAP4K4 (Homo sapiens, UniProt O95819); test: Human kinase inhibition, HuMAP4K4; settings: read-out: HuMAP4K4, IC50
[14] = In vitro microsomal stability, rat; assay type: in vitro ADME; settings: rat liver microsomes, pH 7.4, read-out: microsomal CLint, app rat
[15] = tested on: Chinese Hamster Ovary (CHO) cell line; test: cells; assay type: cell-based; settings: Cricetulus griseus, CHO; MTT assay over 48h; read-out: CHO IC50
[16] = tested on: Dd2; test: microbe, parasite or virus in culture; assay type: cell-based; settings: Plasmodium falciparum, DD2, 72 h, read-out: Dd2 IC50 ± SD
[17] = tested on: P. falciparum PI4K conditional knockdown line; test: microbe, parasite or virus in culture; assay type: cell-based, Plasmodium falciparum; settings: for IC50: Plasmodium falciparum; for ABS IC50 for PfPI4K cKD, N=1, fold shift: experiment N=1; for ABS IC50 for PfPI4K cKD, N=1, fold shift / ABS IC50 for PfPI4K cKD, N=2, fold shift / ABS IC50 for PfPI4K cKD, N=3, fold shift / ABS IC50 for PfPI4K cKD, mean fold shift (fold decrease in IC50 on knockdown): +aTc vs no aTc; for ABS IC50 for PfPI4K cKD, N=2, fold shift: experiment N=2; for ABS IC50 for PfPI4K cKD, N=3, fold shift: experiment N=3
[18] = In vitro microsomal stability, mouse; assay type: in vitro ADME; settings: mouse liver microsomes, pH 7.4, read-out: microsomal CLint, app mouse
[19] = biological target: cytochrome P450 2D6 (Homo sapiens, UniProt P10635); test: Cytochrome P450 inhibition, 2D6; assay type: in vitro ADME
Source text: Table 10 In Vitro and In Vivo Pharmacokinetic Parameters ^a | column: 14

[20] = Solubility, miniaturized shake flask method
[21] = In vitro microsomal stability, human; assay type: in vitro ADME; settings: pooled human liver microsomes, pH 7.4, read-out: microsomal CLint, app human
[22] = tested on: multidrug-resistant strain, K1; test: Antiplasmodial activity, parasite lactate dehydrogenase assay, K1; assay type: cell-based, Plasmodium falciparum; settings: Plasmodium falciparum, K1, 72 h, parasite lactate dehydrogenase assay over 72 h; read-out: Pf IC50 ± SD K1
[23] = biological target: HuPI4Kβ (Homo sapiens, UniProt Q9UBF8); test: Human kinase inhibition, HuPI4Kβ; settings: read-out: HuPI4Kβ, IC50
[24] = Caco-2 permeability; assay type: in vitro ADME; settings: human
[25] = Plasma protein binding, human; assay type: in vitro ADME; settings: pooled human plasma, read-out: PPB fu, human
[26] = LogD shake-flask; assay type: physicochemical; settings: n-octanol/phosphate buffer (1:1), phosphate buffer (pH 7.4) / n-octanol
[27] = pKa of piperidine N; assay type: physicochemical
[28] = biological target: T1, hERG channels (Homo sapiens, UniProt Q12809); test: hERG inhibition, QPatch automated patch clamp assay; assay type: cell-based; settings: CHO cells stably expressing the hERG channels
T1 construct: expressed in transfected cells; host or cells: CHO cells

[29] = Plasmodium falciparum, NF54, 72 h
[30] = 72 h, read-out: ABS IC50 for PfPI4K cKD, N=1, +aTc, experiment N=1, +aTc (500 nM, control conditions), 72 hours
[31] = 72 h, read-out: ABS IC50 for PfPI4K cKD, N=1, no aTc, experiment N=1, no aTc (PI4K knockdown), 72 hours
[32] = 72 h, read-out: ABS IC50 for PfPI4K cKD, N=2, +aTc, experiment N=2, +aTc (500 nM, control conditions), 72 hours
[33] = 72 h, read-out: ABS IC50 for PfPI4K cKD, N=2, no aTc, experiment N=2, no aTc (PI4K knockdown), 72 hours
[34] = 72 h, read-out: ABS IC50 for PfPI4K cKD, N=3, +aTc, experiment N=3, +aTc (500 nM, control conditions), 72 hours
[35] = 72 h, read-out: ABS IC50 for PfPI4K cKD, N=3, no aTc, experiment N=3, no aTc (PI4K knockdown), 72 hours
[36] = read-out: ABS IC50 for PfPI4K cKD, Mean + SD, +aTc, mean of N=3, +aTc (control conditions)
[37] = read-out: ABS IC50 for PfPI4K cKD, Mean + SD, no aTc, mean of N=3, no aTc (PI4K knockdown)

Chain of PvPI4K (A5KB26 entry or part of it): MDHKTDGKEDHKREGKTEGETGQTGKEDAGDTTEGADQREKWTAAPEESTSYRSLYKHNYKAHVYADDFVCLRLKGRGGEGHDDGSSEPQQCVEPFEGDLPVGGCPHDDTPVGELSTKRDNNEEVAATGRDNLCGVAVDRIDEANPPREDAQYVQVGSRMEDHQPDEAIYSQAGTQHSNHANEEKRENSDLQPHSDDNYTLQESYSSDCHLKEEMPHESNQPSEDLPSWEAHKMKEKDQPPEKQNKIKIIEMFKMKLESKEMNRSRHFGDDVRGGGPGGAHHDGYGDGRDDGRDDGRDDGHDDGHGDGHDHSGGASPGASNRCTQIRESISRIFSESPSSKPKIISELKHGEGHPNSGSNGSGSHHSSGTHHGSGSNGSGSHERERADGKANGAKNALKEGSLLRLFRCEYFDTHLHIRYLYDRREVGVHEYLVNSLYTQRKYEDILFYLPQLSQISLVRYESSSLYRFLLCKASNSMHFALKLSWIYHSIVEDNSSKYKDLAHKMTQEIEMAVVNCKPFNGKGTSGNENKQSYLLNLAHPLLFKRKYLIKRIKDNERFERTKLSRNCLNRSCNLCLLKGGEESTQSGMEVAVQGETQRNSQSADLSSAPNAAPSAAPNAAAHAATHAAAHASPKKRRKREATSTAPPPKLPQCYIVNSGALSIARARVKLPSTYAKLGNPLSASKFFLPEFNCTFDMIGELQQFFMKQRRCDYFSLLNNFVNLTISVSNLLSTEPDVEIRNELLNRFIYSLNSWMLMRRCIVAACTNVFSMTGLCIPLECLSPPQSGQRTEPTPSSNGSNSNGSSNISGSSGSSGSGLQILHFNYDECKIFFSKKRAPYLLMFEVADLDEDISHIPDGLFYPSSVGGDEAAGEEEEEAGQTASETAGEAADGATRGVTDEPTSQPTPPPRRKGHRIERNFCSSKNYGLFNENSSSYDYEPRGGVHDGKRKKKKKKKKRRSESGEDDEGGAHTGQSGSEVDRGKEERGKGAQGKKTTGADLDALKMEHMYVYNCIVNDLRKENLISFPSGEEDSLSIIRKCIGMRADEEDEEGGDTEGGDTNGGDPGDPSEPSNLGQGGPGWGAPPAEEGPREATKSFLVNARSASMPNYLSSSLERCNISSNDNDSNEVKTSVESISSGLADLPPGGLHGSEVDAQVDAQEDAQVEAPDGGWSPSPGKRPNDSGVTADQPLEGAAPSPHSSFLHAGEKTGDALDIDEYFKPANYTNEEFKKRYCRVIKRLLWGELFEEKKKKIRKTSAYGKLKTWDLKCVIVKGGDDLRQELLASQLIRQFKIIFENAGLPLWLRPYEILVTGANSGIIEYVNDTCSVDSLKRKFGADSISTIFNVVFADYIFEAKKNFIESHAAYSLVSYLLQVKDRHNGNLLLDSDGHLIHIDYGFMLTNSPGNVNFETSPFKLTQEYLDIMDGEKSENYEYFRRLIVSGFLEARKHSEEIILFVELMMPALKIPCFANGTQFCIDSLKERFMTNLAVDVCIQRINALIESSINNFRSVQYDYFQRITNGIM
Chain of HuMAP4K4 (O95819 whole entry): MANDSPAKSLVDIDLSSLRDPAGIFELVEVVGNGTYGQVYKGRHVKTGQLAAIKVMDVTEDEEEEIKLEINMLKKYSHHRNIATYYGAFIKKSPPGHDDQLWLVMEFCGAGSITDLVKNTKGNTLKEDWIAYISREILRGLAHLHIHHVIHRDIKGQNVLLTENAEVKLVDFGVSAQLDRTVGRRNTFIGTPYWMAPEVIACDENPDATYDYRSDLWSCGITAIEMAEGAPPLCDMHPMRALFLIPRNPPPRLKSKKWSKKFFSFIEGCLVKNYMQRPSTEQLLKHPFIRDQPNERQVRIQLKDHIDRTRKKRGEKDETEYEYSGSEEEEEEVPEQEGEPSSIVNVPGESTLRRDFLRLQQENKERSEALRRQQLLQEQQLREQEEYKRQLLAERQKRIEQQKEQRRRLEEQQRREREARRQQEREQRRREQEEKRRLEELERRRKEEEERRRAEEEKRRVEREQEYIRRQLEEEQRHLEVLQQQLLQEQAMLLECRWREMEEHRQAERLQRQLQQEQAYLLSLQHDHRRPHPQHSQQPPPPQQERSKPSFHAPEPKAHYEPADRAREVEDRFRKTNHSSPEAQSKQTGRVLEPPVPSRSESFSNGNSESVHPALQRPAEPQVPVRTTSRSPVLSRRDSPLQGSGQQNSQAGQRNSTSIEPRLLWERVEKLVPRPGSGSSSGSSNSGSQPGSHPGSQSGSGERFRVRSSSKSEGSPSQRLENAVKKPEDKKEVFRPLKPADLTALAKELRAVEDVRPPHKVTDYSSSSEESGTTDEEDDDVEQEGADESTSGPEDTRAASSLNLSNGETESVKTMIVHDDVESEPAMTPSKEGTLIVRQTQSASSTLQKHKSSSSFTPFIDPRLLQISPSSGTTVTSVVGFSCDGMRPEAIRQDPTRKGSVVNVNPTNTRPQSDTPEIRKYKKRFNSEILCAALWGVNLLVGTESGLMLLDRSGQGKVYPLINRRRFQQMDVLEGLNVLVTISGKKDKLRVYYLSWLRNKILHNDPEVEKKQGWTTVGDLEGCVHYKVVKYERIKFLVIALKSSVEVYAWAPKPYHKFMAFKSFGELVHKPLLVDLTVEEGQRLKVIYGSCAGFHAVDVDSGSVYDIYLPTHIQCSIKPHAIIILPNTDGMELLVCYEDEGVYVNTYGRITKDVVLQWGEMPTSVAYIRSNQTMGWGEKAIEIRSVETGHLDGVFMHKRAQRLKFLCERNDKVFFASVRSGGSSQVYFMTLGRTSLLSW
Chain of cytochrome P450 3A4 (P08684 whole entry): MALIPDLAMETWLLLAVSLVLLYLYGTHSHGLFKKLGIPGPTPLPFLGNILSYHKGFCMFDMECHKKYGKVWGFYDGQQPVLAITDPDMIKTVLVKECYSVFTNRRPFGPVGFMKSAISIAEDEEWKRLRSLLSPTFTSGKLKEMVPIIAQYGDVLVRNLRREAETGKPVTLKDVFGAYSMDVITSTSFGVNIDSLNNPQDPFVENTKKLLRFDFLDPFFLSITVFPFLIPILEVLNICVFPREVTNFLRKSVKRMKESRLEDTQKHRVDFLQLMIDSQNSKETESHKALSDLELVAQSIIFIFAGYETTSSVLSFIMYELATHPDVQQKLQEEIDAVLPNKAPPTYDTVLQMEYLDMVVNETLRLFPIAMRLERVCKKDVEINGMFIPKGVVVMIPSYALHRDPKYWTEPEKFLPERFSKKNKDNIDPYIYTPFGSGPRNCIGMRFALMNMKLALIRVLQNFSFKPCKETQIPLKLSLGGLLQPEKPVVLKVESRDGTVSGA
Chain of HuPI3Kα (P42336 whole entry): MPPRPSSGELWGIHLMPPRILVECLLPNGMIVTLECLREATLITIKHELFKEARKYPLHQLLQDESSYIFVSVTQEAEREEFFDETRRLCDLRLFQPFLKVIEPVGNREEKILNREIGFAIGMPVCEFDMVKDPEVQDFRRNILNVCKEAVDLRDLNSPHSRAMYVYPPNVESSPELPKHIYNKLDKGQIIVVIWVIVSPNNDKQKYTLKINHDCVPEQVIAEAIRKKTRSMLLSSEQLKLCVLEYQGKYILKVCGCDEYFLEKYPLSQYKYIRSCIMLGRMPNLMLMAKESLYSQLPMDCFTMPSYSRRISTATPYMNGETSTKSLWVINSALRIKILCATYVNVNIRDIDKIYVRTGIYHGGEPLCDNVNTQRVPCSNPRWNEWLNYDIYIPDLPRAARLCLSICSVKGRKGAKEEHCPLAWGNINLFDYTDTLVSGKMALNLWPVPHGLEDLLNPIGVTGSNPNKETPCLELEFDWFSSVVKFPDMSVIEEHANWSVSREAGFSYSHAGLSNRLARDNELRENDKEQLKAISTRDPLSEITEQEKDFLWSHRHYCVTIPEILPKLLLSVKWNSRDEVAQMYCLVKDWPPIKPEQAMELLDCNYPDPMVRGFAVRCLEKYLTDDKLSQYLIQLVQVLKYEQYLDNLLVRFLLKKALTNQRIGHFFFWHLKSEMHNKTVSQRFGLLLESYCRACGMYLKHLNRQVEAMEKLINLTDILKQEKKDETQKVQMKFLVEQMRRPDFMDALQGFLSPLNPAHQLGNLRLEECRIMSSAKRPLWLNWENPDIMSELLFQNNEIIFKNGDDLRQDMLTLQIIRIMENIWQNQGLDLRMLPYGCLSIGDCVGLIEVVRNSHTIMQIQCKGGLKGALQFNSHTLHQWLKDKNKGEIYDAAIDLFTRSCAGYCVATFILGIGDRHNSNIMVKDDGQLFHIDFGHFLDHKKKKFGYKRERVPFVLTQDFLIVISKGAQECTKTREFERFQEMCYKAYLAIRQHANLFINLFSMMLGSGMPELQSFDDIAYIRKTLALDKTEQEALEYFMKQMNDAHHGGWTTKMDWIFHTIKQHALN
Chain of HuPI3Kα (P27986 whole entry partner): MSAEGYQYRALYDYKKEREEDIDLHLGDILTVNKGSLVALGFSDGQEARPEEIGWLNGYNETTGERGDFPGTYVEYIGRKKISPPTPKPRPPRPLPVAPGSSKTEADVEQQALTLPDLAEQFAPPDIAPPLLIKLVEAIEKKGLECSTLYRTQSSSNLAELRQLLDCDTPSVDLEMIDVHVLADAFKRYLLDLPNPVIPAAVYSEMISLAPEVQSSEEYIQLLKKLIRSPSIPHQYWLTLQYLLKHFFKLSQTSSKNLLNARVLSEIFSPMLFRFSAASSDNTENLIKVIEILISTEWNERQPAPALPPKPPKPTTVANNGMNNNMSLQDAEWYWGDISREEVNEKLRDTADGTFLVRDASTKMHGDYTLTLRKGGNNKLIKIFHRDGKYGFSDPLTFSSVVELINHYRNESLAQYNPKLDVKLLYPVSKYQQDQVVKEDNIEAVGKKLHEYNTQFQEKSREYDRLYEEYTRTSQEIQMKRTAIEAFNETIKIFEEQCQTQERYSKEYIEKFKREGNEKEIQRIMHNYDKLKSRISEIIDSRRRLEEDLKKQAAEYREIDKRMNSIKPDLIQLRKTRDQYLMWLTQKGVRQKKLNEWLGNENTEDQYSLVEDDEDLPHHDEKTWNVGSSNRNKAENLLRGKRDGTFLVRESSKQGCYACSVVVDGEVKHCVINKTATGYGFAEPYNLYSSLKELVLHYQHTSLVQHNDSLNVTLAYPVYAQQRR

Structure (SMILES)	IC50 [1] [nM]	IC50 [2] [nM]	IC50 [3, 29] [nM]	IC50 [4] [nM]	IC50 [6] [nM]	IC50 [7] [nM]	IC50 [10]	in vivo mouse CLu [12] [mL/min/kg]	Vd at 24 h [12] [L/kg]	half-life at 24 h [12] [h]	bioavailability at 24 h [12] [%]	in vivo mouse CLb [12] [mL/min/kg]	CLint scaled at 1 µM [14] [mL/min/kg]	IC50 [15] [nM]	CLint scaled at 1 µM [18] [mL/min/kg]	solubility at 20 h ([20]; PBS, pH 6.5) [µM]	solubility at 20 h ([20]; aqueous solution) [µM]	CLint scaled at 1 µM [21] [mL/min/kg]	IC50 [22] [nM]	logD at 3 h [26]	also measured
N[C@H]1CCN(c2ccnc3ccc(-c4ccc(C(F)(F)F)nc4)nc23)C1 [Compound 14, (3S)-1-[6-[6-(Trifluoromethyl)pyridin-3-yl]-1,5-naphthyridin-4-yl]pyrrolidin-3-amine]	> 20000	18000	31 ± 3	1210 ± 220	> 10000	> 20000	33000 nM and < 60000 nM	135	4.4	6.3	27	10.80	< 21	12000	< 46	200 (≈ 71.9 µg/mL)	200 (≈ 71.9 µg/mL)	< 13	87 ± 30		Attempts to raise mutants [5]: not successful; IC50 [8]: 41 ± 10 nM; IC50 [9]: 5200 nM; fraction unbound at 5 h, 5 µM [11]: 0.08; IC50 [13]: > 10000 nM; IC50 [16]: 46 ± 20 nM; IC50 [17, 30]: 23 nM; IC50 [17, 31]: 25 nM; IC50 [17, 32]: 37 nM; IC50 [17, 33]: 38 nM; IC50 [17, 34]: 21 nM; IC50 [17, 35]: 20 nM; IC50 [17, 36]: 27 ± 9 nM; IC50 [17, 37]: 28 ± 9 nM; ABS IC50 for PfPI4K cKD, N=1, fold shift [17]: 0.90 fold; ABS IC50 for PfPI4K cKD, N=2, fold shift [17]: 0.98 fold; ABS IC50 for PfPI4K cKD, N=3, fold shift [17]: 1.04 fold; ABS IC50 for PfPI4K cKD, mean fold shift (fold decrease in IC50 on knockdown) [17]: 0.97 fold; IC50 [19]: > 20000 nM; IC50 [23]: > 10000 nM
FC(F)(F)c1ccc(-c2ccc3nccc(N[C@@H]4CCNC4)c3n2)cn1 [Compound 16, N-[(3R)-Pyrrolidin-3-yl]-6-[6-(trifluoromethyl)pyridin-3-yl]-1,5-naphthyridin-4-amine]	> 20000	> 20000	86 ± 16	66 ± 21	> 10000	> 20000	32000 nM and < 60000 nM	76	3.1	2.7	96	13.70	< 21	> 50000	< 467	195 (≈ 70.1 µg/mL)	200 (≈ 71.9 µg/mL)	< 13		0.96	efflux ratio [24]: 13; Papp A→B ([24]; A > B): 2.6 ×10⁻⁶ cm/s; fraction unbound at 5 h, 5 µM [25]: 0.18; IC50 [9]: 8900 nM; IC50 [13]: > 10000 nM; IC50 [17, 30]: 71 nM; IC50 [17, 31]: 72 nM; IC50 [17, 32]: 118 nM; IC50 [17, 33]: 118 nM; IC50 [17, 34]: 63 nM; IC50 [17, 35]: 72 nM; IC50 [17, 36]: 84 ± 30 nM; IC50 [17, 37]: 88 ± 27 nM; ABS IC50 for PfPI4K cKD, N=1, fold shift [17]: 0.98 fold; ABS IC50 for PfPI4K cKD, N=2, fold shift [17]: 1.00 fold; ABS IC50 for PfPI4K cKD, N=3, fold shift [17]: 0.88 fold; ABS IC50 for PfPI4K cKD, mean fold shift (fold decrease in IC50 on knockdown) [17]: 0.95 fold; IC50 [23]: > 10000 nM
O[C@H]1CNCC[C@H]1Nc1ccnc2ccc(-c3ccc(C(F)(F)F)nc3)nc12 (relative stereo) [Compound 27, rac-cis-4-[[6-[6-(Trifluoromethyl)pyridin-3-yl]-1,5-naphthyridin-4-yl]amino]piperidin-3-ol]			140	370 ± 175			140000 ± 7000 nM							33000			200 (≈ 77.9 µg/mL)		334 ± 147	1.02	IC50 [3]: 130 ± 24 nM; IC50 [8]: 381 ± 17 nM; pKa [27]: 8.99; IC50 [28]: 24500 nM; IC50 [16]: 437 ± 71 nM
CN1CCC(Nc2ccnc3ccc(-c4ccc(C(F)(F)F)nc4)nc23)CC1 [Compound 21, N-(1-Methylpiperidin-4-yl)-6-[6-(trifluoromethyl)pyridin-3-yl]-1,5-naphthyridin-4-amine]			52 ± 14	175 ± 82			35000 nM and < 60000 nM	22	12	16	99	9.90	< 21	> 50000	< 46	160 (≈ 62 µg/mL)	160 (≈ 62 µg/mL)	< 10	162 ± 4	1.86	fraction unbound at 5 h, 5 µM [25]: 0.5; fraction unbound at 5 h, 5 µM [11]: 0.3

— paper PMC11247499, “2,8-Disubstituted-1,5-naphthyridines as Dual Inhibitors of Plasmodium falciparum Phosphatidylinositol-4-kinase and Hemozoin Formation with In Vivo Efficacy” (Journal of Medicinal Chemistry, 2024)
